Drawing on ChEMBL document CHEMBL1221321, “Synthesis and properties of macrolones characterized by two ether bonds in the linker” (Bioorg Med Chem, 2010), this text covers MIC and IC50 for six compounds.

One experiment deals with Haemophilus influenzae. Description: Antibacterial activity against Haemophilus influenzae ATCC 49247 by broth microdilution method. It counts as functional. (In general: In broth dilution the organism is exposed to a series of concentrations in liquid medium.)
Experiment [1] concerns Staphylococcus aureus. Nature of the experiment: Antibacterial activity against efflux-mediated macrolide-resistance Staphylococcus aureus PK1 by broth microdilution method. It counts as functional.
A further experiment concerns THP-1. Description: Cytotoxicity against human THP1 cells after 24 hrs by MTS assay. It is filed as cell-based. The settings on record: THP-1, 24 h. A general note: Tetrazolium dyes change colour on reduction, which living cells bring about.
In experiment [2] the test system is Streptococcus pyogenes. Description: Antibacterial activity against inducible resistance to macrolide, licosamide and streptogramin Streptococcus pyogenes 11 by broth microdilution method. The settings on record: read-out: MIC. It is filed as functional.
Experiment [3] deals with Streptococcus pneumoniae. Description: Antibacterial activity against constitutive MLS resistance Streptococcus pneumoniae 58 by broth microdilution method. It counts as functional.
Experiment [4] relates to Streptococcus pyogenes. Description: Antibacterial activity against efflux-mediated macrolide-resistance Streptococcus pyogenes 2 by broth microdilution method. It counts as functional.
Experiment [5] has as its system Staphylococcus aureus. Nature of the experiment: Antibacterial activity against inducible resistance to macrolide, licosamide, and streptogramin Staphylococcus aureus 90265/97 by broth microdilution method. It is filed as functional.
Experiment [6] relates to Streptococcus pneumoniae. Description: Antibacterial activity against efflux-mediated macrolide-resistance Streptococcus pneumoniae Ci137 by broth microdilution method. It is filed as functional. The settings on record: read-out: MIC.
In another experiment the test system is HepG2. Nature of the experiment: Cytotoxicity against human HepG2 cells after 24 hrs by MTS assay. The settings on record: HepG2, 24 h. It counts as cell-based.
Experiment [7] has as its system Streptococcus pyogenes. Nature of the experiment: Antibacterial activity against constitutive MLS resistance Streptococcus pyogenes 166 GR-Micro by broth microdilution method. It is filed as functional.
Experiment [8] has as its system Streptococcus pneumoniae. Description: Antibacterial activity against inducible resistance to macrolide and constitutive resistance to lincosamide Streptococcus pneumoniae 134 GR M by broth microdilution method. It is filed as functional.

For orientation: IC50 means the concentration needed to halve the response being measured.

Values after ≈ are worked out from the molar mass of the structure shown.

Take `CC[C@H]1OC(=O)[C@H](C)[C@@H](O[C@H]2C[C@@](C)(OC)[C@@H](OCCCOCCCc3ccc4c(c3)c(=O)c(C(=O)O)cn4C3CC3)[C@H](C)O2)[C@H](C)[C@@H](O[C@@H]2O[C@H](C)C[C@H](N(C)C)[C@H]2O)[C@](C)(O)C[C@@H](C)CN(C)[C@H](C)[C@@H](O)[C@]1(C)O`: the MIC in the experiment on Haemophilus influenzae is 2 µg/mL (≈ 1.86 µM); in the experiment on Staphylococcus aureus [1], at most 0.125 µg/mL; in the experiment on Streptococcus pyogenes [2], at most 0.125 µg/mL; against Streptococcus pneumoniae [3] it was at most 0.125 µg/mL; with Streptococcus pyogenes [4] it was at most 0.125 µg/mL; in the experiment with Staphylococcus aureus [5], at most 0.125 µg/mL. In addition, the MIC in the experiment with Streptococcus pneumoniae [6], against Streptococcus pyogenes [7] and in the experiment on Streptococcus pneumoniae [8] was at most 0.125 µg/mL throughout. The results for the IC50 in the experiment on THP-1 and with HepG2 were 48 µM and over 50 µM, respectively.

Consider `CC[C@H]1OC(=O)[C@H](C)[C@@H](O[C@H]2CC(C)(OC)[C@@H](OCCCOCCCc3ccc4c(c3)c(=O)c(C(=O)O)cn4C(C)(C)C)[C@H](C)O2)[C@H](C)[C@@H](O[C@@H]2O[C@H](C)C[C@H](N(C)C)[C@H]2O)[C@](C)(O)C[C@@H](C)CN(C)[C@H](C)[C@@H](O)[C@]1(C)O` (stereo partly specified), for which the MIC in the experiment with Haemophilus influenzae was 2 µg/mL (≈ 1.83 µM); against Staphylococcus aureus [1] it was at most 0.125 µg/mL; with Streptococcus pyogenes [2], at most 0.125 µg/mL; in the experiment on Streptococcus pneumoniae [3] it was at most 0.125 µg/mL; against Streptococcus pyogenes [4], at most 0.125 µg/mL; against Staphylococcus aureus [5], at most 0.125 µg/mL. The MIC in the experiment with Streptococcus pneumoniae [6], with Streptococcus pyogenes [7] and in the experiment on Streptococcus pneumoniae [8] was at most 0.125 µg/mL throughout. Besides, the results for the IC50 with THP-1 and with HepG2 were 40 µM and over 50 µM, respectively.

Take `CC[C@H]1OC(=O)[C@H](C)[C@@H](O[C@H]2C[C@@](C)(OC)[C@@H](OCCCOCCCCc3ccc4c(c3)c(=O)c(C(=O)O)cn4C3CC3)[C@H](C)O2)[C@H](C)[C@@H](O[C@@H]2O[C@H](C)C[C@H](N(C)C)[C@H]2O)[C@](C)(O)C[C@@H](C)CN(C)[C@H](C)[C@@H](O)[C@]1(C)O`: the MIC was 0.5 µg/mL (≈ 0.459 µM) in the experiment on Haemophilus influenzae; at most 0.125 µg/mL against Staphylococcus aureus [1]; at most 0.125 µg/mL in the experiment on Streptococcus pyogenes [2]; at most 0.125 µg/mL in the experiment on Streptococcus pneumoniae [3]; at most 0.125 µg/mL in the experiment on Streptococcus pyogenes [4]; at most 0.125 µg/mL in the experiment on Staphylococcus aureus [5]. The MIC in the experiment with Streptococcus pneumoniae [6], in the experiment with Streptococcus pyogenes [7] and in the experiment on Streptococcus pneumoniae [8] was at most 0.125 µg/mL in each case. Moreover, the IC50 in the experiment on THP-1 is 20 µM; in the experiment on HepG2, 47 µM.

Take `CC[C@H]1OC(=O)[C@H](C)[C@@H](O[C@H]2C[C@@](C)(OC)[C@@H](OCCCOCCCc3ccc4c(c3)c(=O)c(C(=O)O)cn4CCN(C)C)[C@H](C)O2)[C@H](C)[C@@H](O[C@@H]2O[C@H](C)C[C@H](N(C)C)[C@H]2O)[C@](C)(O)C[C@@H](C)CN(C)[C@H](C)[C@@H](O)[C@]1(C)O`: the MIC against Haemophilus influenzae is 4 µg/mL (≈ 3.61 µM); in the experiment with Staphylococcus aureus [1], at most 0.125 µg/mL; with Streptococcus pyogenes [2], at most 0.125 µg/mL; with Streptococcus pneumoniae [3], at most 0.125 µg/mL; in the experiment on Streptococcus pyogenes [4], 0.25 µg/mL (≈ 0.226 µM); against Staphylococcus aureus [5], at most 0.125 µg/mL. Besides, the MIC in the experiment with Streptococcus pneumoniae [6] was at most 0.125 µg/mL; against Streptococcus pyogenes [7], 1 µg/mL (≈ 0.903 µM); in the experiment with Streptococcus pneumoniae [8], 0.25 µg/mL (≈ 0.226 µM). Also, the concentration for half-maximal inhibition (IC50) with THP-1 and in the experiment on HepG2 was over 50 µM in each case.

On to `CCCn1cc(C(=O)O)c(=O)c2cc(CCCOCCCO[C@H]3[C@H](C)O[C@@H](O[C@H]4[C@H](C)[C@@H](O[C@@H]5O[C@H](C)C[C@H](N(C)C)[C@H]5O)[C@](C)(O)C[C@@H](C)CN(C)[C@H](C)[C@@H](O)[C@](C)(O)[C@@H](CC)OC(=O)[C@@H]4C)C[C@@]3(C)OC)ccc21`, for which the MIC is 2 µg/mL (≈ 1.85 µM) with Haemophilus influenzae; at most 0.125 µg/mL in the experiment on Staphylococcus aureus [1]; at most 0.125 µg/mL in the experiment with Streptococcus pyogenes [2]; at most 0.125 µg/mL against Streptococcus pneumoniae [3]; at most 0.125 µg/mL against Streptococcus pyogenes [4]; 0.25 µg/mL (≈ 0.232 µM) in the experiment on Staphylococcus aureus [5]. Also, the MIC in the experiment with Streptococcus pneumoniae [6] is at most 0.125 µg/mL; against Streptococcus pyogenes [7], 0.25 µg/mL (≈ 0.232 µM); against Streptococcus pneumoniae [8], at most 0.125 µg/mL. The IC50 came out at 18 µM in the experiment on THP-1 and 40 µM in the experiment on HepG2.

Take `CC[C@H]1OC(=O)[C@H](C)[C@@H](O[C@H]2C[C@@](C)(OC)[C@@H](OCCCOCCCc3ccc4c(c3)c(=O)c(C(=O)O)cn4N(C)C)[C@H](C)O2)[C@H](C)[C@@H](O[C@@H]2O[C@H](C)C[C@H](N(C)C)[C@H]2O)[C@](C)(O)C[C@@H](C)CN(C)[C@H](C)[C@@H](O)[C@]1(C)O`: the MIC with Haemophilus influenzae is 2 µg/mL (≈ 1.85 µM); in the experiment with Staphylococcus aureus [1], at most 0.125 µg/mL; with Streptococcus pyogenes [2], at most 0.125 µg/mL; against Streptococcus pneumoniae [3], at most 0.125 µg/mL; against Streptococcus pyogenes [4] it was at most 0.125 µg/mL; against Staphylococcus aureus [5] it was at most 0.125 µg/mL. Besides, the MIC in the experiment on Streptococcus pneumoniae [6] was at most 0.125 µg/mL; in the experiment on Streptococcus pyogenes [7], at most 0.125 µg/mL; in the experiment with Streptococcus pneumoniae [8], 0.25 µg/mL (≈ 0.232 µM). For the same compound, the concentration for half-maximal inhibition (IC50) in the experiment with THP-1 is 48 µM; with HepG2, over 50 µM.
